# From patent US20160297761A1, “NOVEL INHIBITORS OF GLUTAMINASE” (RHIZEN PHARMACEUTICALS SA, priority 2014, published 2016)
# Structures can show the parent of a compound that is named as a salt. Where two headings read alike, the source gives them in different places.
# Molecular target: T1, L-glutaminase present in mice brain homogenate (Glutaminase(Brain)) (Mus musculus, UniProt D3Z7P3)
# T1 sequence (D3Z7P3 55-674): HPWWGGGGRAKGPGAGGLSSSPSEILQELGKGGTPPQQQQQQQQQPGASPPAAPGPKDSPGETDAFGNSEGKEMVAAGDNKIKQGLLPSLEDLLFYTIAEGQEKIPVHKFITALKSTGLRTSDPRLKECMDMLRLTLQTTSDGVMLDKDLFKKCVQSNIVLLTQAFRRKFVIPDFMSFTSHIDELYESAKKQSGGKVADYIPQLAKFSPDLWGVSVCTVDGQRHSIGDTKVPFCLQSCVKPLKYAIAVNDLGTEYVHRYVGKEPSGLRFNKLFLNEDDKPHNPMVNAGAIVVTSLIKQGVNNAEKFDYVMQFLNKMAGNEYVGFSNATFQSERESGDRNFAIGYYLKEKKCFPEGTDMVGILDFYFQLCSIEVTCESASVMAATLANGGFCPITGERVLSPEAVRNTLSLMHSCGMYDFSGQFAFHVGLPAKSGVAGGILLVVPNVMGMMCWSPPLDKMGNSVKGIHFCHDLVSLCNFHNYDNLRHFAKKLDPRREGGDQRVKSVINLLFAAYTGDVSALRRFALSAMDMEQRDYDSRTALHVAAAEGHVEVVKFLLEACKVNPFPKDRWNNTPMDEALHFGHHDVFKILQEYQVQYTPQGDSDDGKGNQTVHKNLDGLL
# Test: Glutaminase enzyme activity using glutaminase enzyme from mice brain/kidney homogenate (Nessler's reagent, ammonia)
# Type: biochemical
# Details: for inhibition at 0.1 µM: read-out: Glutaminase(Brain) activity % inhibition 0.1 μM; for inhibition at 1 µM: read-out: Glutaminase(Brain) activity % inhibition @1 μM
# Procedure: Assay 3: Determination of Glutaminase Enzyme Activity Using Glutaminase
# Enzyme from Mice Brain/Kidney
# Step 1: Preparation of Tissue Homogenates: Male Balb/c mice were administered 0.28 M ammonium chloride in drinking water for 7 days. The animals were sacrificed and brain/kidney organs collected on dry ice. […] The tissue was homogenized and supernatants were stored at −80° C. until the enzyme assay was performed.
# Aim: Compounds were assessed for their ability to inhibit the enzymatic activity of L-glutaminase present in mice brain/kidney homogenate.
# Protocol: The assay was performed using a colorimetric method using Nessler's Reagent by quantifying the amount of ammonia formed as a by product during the enzymatic conversion of L-glutamine to glutamate. In the routine assay, 16 μl of tissue homogenate is added to 33 μl of Tris-Hcl phosphate buffer (pH 8) along with 1 μl of DMSO/test compound containing the desired final concentration and vortexed briefly. 50 μl of 20 mM L-glutamine Tris buffer is added to start the reaction and incubated for 15 minutes at 37° C. The ammonia formed is detected by adding 20 μl of reaction mixture to cold water in a 96 well plate followed by 20 μl of Nessler's reagent. The colour developed is measured at 450 nm. Data Analysis: Activity of the test compound is reported as % inhibition and the data is analyzed using Graphpad Prism (Graphpad software; San Diego Calif.) for IC50 determination.
"inhibition at 0.1 µM (0.1 μM, mice brain homogenate) [%]","inhibition at 1 µM (1 μM, mice brain homogenate) [%]",SMILES,inhibition at 0.1 µM [%],inhibition at 1 µM [%]
50 to 75,75 to 100,"O=C(Cc1cccnc1)Nc1ccc(CCCCc2nnc(NC(=O)Cc3cccnc3)s2)cn1 [Example-15, 2-(Pyridin-3-yl)-N-(5-(4-(5-(2-(pyridin-3-yl)acetamido)-1,3,4-thiadiazol-2-yl)butyl)pyridin-2-yl)acetamide]",,
< 25,< 25,"O=C(Cc1cccc(OC(F)(F)F)c1)Nc1ccc(CCCCc2nnc(NC(=O)Cc3cccnc3)s2)nc1 [Example-5, 2-(Pyridin-3-yl)-N-(5-(4-(5-(2-(3-(trifluoromethoxy)phenyl)acetamido)pyridin-2-yl)butyl)-1,3,4-thiadiazol-2-yl)acetamide]",,
,,"O=C(Cc1cccc(OC(F)(F)F)c1)Nc1ccc(CCCCc2nnc(NC(=O)Cc3cccc(C4CCNCC4)c3)s2)cn1 [Example-36, 2-(3-(Piperidin-4-yl)phenyl)-N-(5-(4-(6-(2-(3-(trifluoromethoxy)phenyl)acetamido)pyridin-3-yl)butyl)-1,3,4-thiadiazol-2-yl)acetamide hydrochloride]",25 to 50,25 to 50
< 25,< 25,"O=C(Cc1cccc(OC(F)(F)F)c1)Nc1ccc(CCCCc2nnc(NC(=O)Cn3nc(C(F)(F)F)cc3C(F)(F)F)s2)cn1 [Example-35, 2-(3,5-Bis(trifluoromethyl)-1H-pyrazol-1-yl)-N-(5-(4-(6-(2-(3-(trifluoromethoxy)phenyl)acetamido)pyridin-3-yl)butyl)-1,3,4-thiadiazol-2-yl)acetamide]",,
50 to 75,75 to 100,"O=C(Cc1ccccc1Cl)Nc1ccc(CCCCc2nnc(NC(=O)Cc3cccnc3)s2)cn1 [Example-26, 2-(2-Chlorophenyl)-N-(5-(4-(5-(2-(pyridin-3-yl)acetamido)-1,3,4-thiadiazol-2-yl)butyl)pyridin-2-yl)acetamide]",,
,,"O=C(Cc1cccc(OC(F)(F)F)c1)Nc1cnc(CCCCc2nnc(NC(=O)Cc3ccccn3)s2)cn1 [Example-6, 2-(Pyridin-2-yl)-N-(5-(4-(5-(2-(3-(trifluoromethoxy)phenyl)acetamido)pyrazin-2-yl)butyl)-1,3,4-thiadiazol-2-yl)acetamide]",< 25,25 to 50
25 to 50,75 to 100,"COc1ccccc1CC(=O)Nc1nnc(CCC#Cc2ccc(NC(=O)Cc3ccccc3Cl)nc2)s1 [Example 1, 2-(2-Chlorophenyl)-N-{5-[4-(5-(2-(2-methoxyphenyl)acetamido)-1,3,4-thiadiazol-2-yl)but-1-ynyl]pyridin-2-yl}acetamide]",,
,,"O=C(Cc1cccc(OC(F)(F)F)c1)Nc1ccc(CC2CC(c3nnc(NC(=O)Cc4ccccn4)s3)C2)nn1 (stereo not drawn) [Example-110, 2-(Pyridin-2-yl)-N-(5-(3-((6-(2-(3-(trifluoromethoxy)phenyl)acetamido)pyridazin-3-yl)methyl)cyclobutyl)-1,3,4-thiadiazol-2-yl)acetamide]",75 to 100,75 to 100
75 to 100,75 to 100,"CS(=O)(=O)c1ccc(CC(=O)Nc2nnc(CCCCc3ccc(NC(=O)Cc4cccnc4)nc3)s2)cc1 [Example-14, 2-(4-(Methylsulfonyl)phenyl)-N-(5-(4-(6-(2-(pyridin-3-yl)acetamido)pyridin-3-yl)butyl)-1,3,4-thiadiazol-2-yl)acetamide]",,
75 to 100,75 to 100,"O=C(Cc1cccnc1)Nc1ccc(CCCCc2nnc(NC(=O)Cc3ccccc3Cl)s2)cn1 [Example-12, 2-(2-Chlorophenyl)-N-(5-(4-(6-(2-(pyridin-3-yl)acetamido)pyridin-3-yl)butyl)-1,3,4-thiadiazol-2-yl) acetamide]",,
50 to 75,75 to 100,"O=C(Cc1cccnc1)Nc1ccc(CCCCc2nnc(NC(=O)Cc3ccccc3F)s2)cn1 [Example-19, 2-(2-Fluorophenyl)-N-(5-(4-(6-(2-(pyridin-3-yl)acetamido)pyridin-3-yl)butyl)-1,3,4-thiadiazol-2-yl)acetamide]",,
,,"O=C(Cc1cccc(OC(F)(F)F)c1)Nc1ccc(CCCCc2nnc(NC(=O)Cc3ccc(C4CCNCC4)cc3)s2)cn1 [Example-34, 2-(4-(Piperidin-4-yl)phenyl)-N-(5-(4-(6-(2-(3-(trifluoromethoxy)phenyl)acetamido)pyridin-3-yl)butyl)-1,3,4-thiadiazol-2-yl)acetamide hydrochloride]",< 25,25 to 50
25 to 50,75 to 100,"CS(=O)(=O)Nc1cccc(CC(=O)Nc2nnc(CCCCc3ccc(NC(=O)Cc4cccc(OC(F)(F)F)c4)nc3F)s2)c1 [Example-39, N-(6-Fluoro-5-(4-(5-(2-(3-(methylsulfonamido)phenyl)acetamido)-1,3,4-thiadiazol-2-yl)butyl)pyridin-2-yl)-2-(3-(trifluoromethoxy)phenyl)acetamide]",,
< 25,25 to 50,"O=C(Cc1cccc(OC(F)(F)F)c1)Nc1ncc(CCCCc2nnc(NC(=O)Cc3ccccn3)s2)cn1 [Example-7, 2-(Pyridin-2-yl)-N-(5-(4-(2-(2-(3-(trifluoromethoxy)phenyl)acetamido)pyrimidin-5-yl)butyl)-1,3,4-thiadiazol-2-yl)acetamide]",,
75 to 100,75 to 100,"CS(=O)(=O)c1cccc(CC(=O)Nc2nnc(CCCCc3ccc(NC(=O)Cc4cccnc4)nc3)s2)c1 [Example-13, 2-(3-(Methylsulfonyl)phenyl)-N-(5-(4-(6-(2-(pyridin-3-yl)acetamido)pyridin-3-yl)butyl)-1,3,4-thiadiazol-2-yl)acetamide]",,
< 25,25 to 50,"O=C(Cc1ccccn1)Nc1nnc(CC2CCC(Cc3nnc(NC(=O)Cc4ccccn4)s3)CC2)s1 (stereo not drawn) [Example-106, N,N′-(5, 5′-(Cyclohexane-1,4-diylbis(methylene))bis(1,3,4-thiadiazole-5,2-diyl))bis(2-(pyridin-2-yl)acetamide)]",,
< 25,25 to 50,"CC(C)(C)OC(=O)N1CCC(c2ccc(CC(=O)Nc3nnc(CCCCc4ccc(NC(=O)Cc5cccc(OC(F)(F)F)c5)nc4)s3)cc2)CC1 [Example-33, Tert-butyl 4-(4-(2-oxo-2-(5-(4-(6-(2-(3-(trifluoromethoxy)phenyl)acetamido)pyridin-3-yl)butyl)-1,3,4-thiadiazol-2-ylamino)ethyl)phenyl)piperidine-1-carboxylate]",,
< 25,50 to 75,"O=C(Cc1ccccc1Cl)Nc1ccc(CCCCc2nnc(NC(=O)Cc3ccccn3)s2)cn1 [Example-25, 2-(2-Chlorophenyl)-N-(5-(4-(5-(2-(pyridin-2-yl)acetamido)-1,3,4-thiadiazol-2-yl)butyl)pyridin-2-yl)acetamide]",,
< 25,,"O=C(Cc1cccc(OC(F)(F)F)c1)Nc1ccc(CCCCc2nnc(NC(=O)Cc3ccccn3)s2)nc1 [Example-4, 2-(Pyridin-2-yl)-N-(5-(4-(5-(2-(3-(trifluoromethoxy)phenyl)acetamido)pyridin-2-yl)butyl)-1,3,4-thiadiazol-2-yl)acetamide]",,
50 to 75,75 to 100,"COc1ccccc1CC(=O)Nc1nnc(CCCCc2ccc(NC(=O)Cc3ccccc3Cl)nc2)s1 [Example 2, 2-(2-Chlorophenyl)-N-{5-[4-(5-(2-(2-methoxyphenyl)acetamido)-1,3,4-thiadiazol-2-yl)butyl]pyridin-2-yl}acetamide]",,
